Calls of active or inactive are those of the source. The calls are words filed in the database; no cut-off is given here.
Key:
[1] = tested on: Mus musculus; assay: Protective effect in ovariectomy induced osteoporosis C57BL/6 mouse model assessed as increase in trabecular bone number (Tb.N) in RIO of femur at 1 to 3 mg/kg, ip and measured after 6 weeks by micro-CT analysis; type: functional, organism-based; settings: dose 1-3 mg/kg
[2] = tested on: Mus musculus; assay: Protective effect in ovariectomy induced osteoporosis C57BL/6 mouse model assessed as inhibition of OVX-induced osteoclast activity by analysing osteoclast area in proximal femur at 3 mg/kg, ip and measured after 6 weeks by H and E staining based microscopic analysis; type: functional, organism-based
[3] = tested on: BMMC; assay: Anti-osteoclastogenic activity in C57/BL6 mouse BMMC cells assessed as reduction in RANKL-induced MMP-9 mRNA expression level at 0.1 uM incubated for 1 to 5 days in presence of M-CSF by qRT-PCR analysis; type: functional, cell-based; settings: time 1-5 day, TDE = time-dependent effect
[4] = Microsomal stability in mouse liver microsomes assessed as parent compound remaining at 1 uM and measured after 60 mins by LC-MS/ MS analysis; type: ADME, Microsome; settings: read-out: Stability
[5] = Oral bioavailability in ICR mouse at 10 mg/kg and measured upto 24 hrs by LC-MS/MS analysis; type: ADME, organism-based; settings: in vivo
[6] = Half life in ICR mouse at 10 mg/kg, po and measured upto 24 hrs by LC-MS/MS analysis; type: ADME, organism-based; settings: in vivo
[7] = tested on: Mus musculus; assay: Protective effect in ovariectomy induced osteoporosis C57BL/6 mouse model assessed as increase in bone volume/tissue volume (BV/TV) in RIO of femur at 3 mg/kg, ip and measured after 6 weeks by micro-CT analysis; type: functional
[8] = tested on: BMMC; assay: Anti-osteoclastogenic activity in C57/BL6 mouse BMMC cells assessed as reduction in RANKL-induced CTSK protein expression level at 0.1 uM incubated for 1 to 3 days in presence of M-CSF by Western blot anlaysis; type: functional, cell-based; settings: time 1-3 day
[9] = tested on: BMMC; assay: Anti-osteoclastogenic activity in C57/BL6 mouse BMMC cells assessed as inhibition of RANKL-induced osteoclast differentiation at 0.01 to 5 uM incubated for 5 to 7 days in presence of M-CSF by TRAP staining based microscopic analysis relative to control; type: functional, cell-based; settings: dose 0.01-5 µM, time 5-7 day
[10] = tested on: BMMC; assay: Anti-osteoclastogenic activity in C57/BL6 mouse BMMC cells assessed as reduction in RANKL-induced CTSK mRNA expression level at 0.1 uM incubated for 1 to 5 days in presence of M-CSF by qRT-PCR analysis; type: functional, cell-based; settings: time 1-5 day, TDE = time-dependent effect

C=C(CCC=C(C)C)[C@H]1CC[C@]2(C)[C@@H]1[C@H](O)C[C@@H]1[C@@]3(C)Cc4cnc(C)nc4C(C)(C)[C@@H]3CC[C@]12C
Activity [1]: Active
inhibition [2]: Active
Activity [3]: Tde
remaining at 1 h, 1 µM [4]: 31%
bioavailability [5]: 10.5%
half-life [6]: 1.03 h
Activity [7]: 23.2%
Activity [8]: Active
inhibition [9]: Dose-Dependent Effect
Activity [10]: Tde
